From article PMC8360061, “Search for the Active Ingredients from a 2‐Aminothiazole DMSO Stock Solution with Antimalarial Activity” (Chemmedchem, 2021)
Like-named read-outs stand apart in the source and are kept apart here.

Key:
PfIspE = PfIspE (Plasmodium falciparum, UniProt Q8I470); experiment: PfIspE enzymatic assay (coupled to PK/LDH, NADH oxidation at 340 nm); type: biochemical
Protocol: (§1) Firstly, we performed a temperature‐dependent decomposition study of compound 1 at 10 mM concentration in DMSO at room temperature (RT), +4 °C and −20 °C (SI, Section 2.3). […] Besides visual inspection of the colour changes of the test sample (see Table 2), the decomposition was monitored by HRMS and NMR spectroscopy. […] Furthermore, all three samples were tested for their inhibitory activity against PfIspE after the incubation period. […] In the IspE assay, the activity of the target enzyme is coupled to the oxidation of NADH (which can be followed spectrophotometrically at 340 nm) via a cascade of the auxiliary enzymes pyruvate kinase and lactate dehydrogenase (PK/LDH).[10] […] Three samples of compound 1 were tested in PK/LDH assay (Table 2).
(§2) Another approach to address this issue is to perform the IspE assay with one or several orthologues of PfIspE. […] The IspE assay setup was identical for both Pf and EcIspE orthologs except for the target enzyme used. One of the setup requirements was that the enzymatic activity of the auxiliary enzymes PK/LDH exceeded the activity of the target enzyme IspE not less than a factor of ten.[10] We investigated, if the inhibition of the auxiliary enzymes may substantially influence the IC50 values obtained from the coupled IspE assay.
(§3) 1.1 General Procedure for Enzymatic Assay
(§4) The cloning, expression and purification of Plasmodium falciparum[1] and Escherichia coli[2,3] and their subsequent assays followed the previously reported procedures .[1] In some specified cases, the tested compound was dissolved in methanol or acetonitrile for the assay .
(§5) Due to the nature of the study, some decomposition samples w ere only tested once and thus, for some formal standard error, […]
(§6) For the final purified compounds, replicates were measured and standard deviation was calculated at least from two replicates. […]
(§7) 2.) Decomposition Study Procedure
(§8) All reagents and solvents were of commercial quality and used without further purification.

EcIspE = biological target: T1, EcIspE (Escherichia coli, UniProt P62615); experiment: EcIspE enzymatic assay (coupled to PK/LDH); type: biochemical; details: fractions of second purification
T1 construct: made in house
T1 sequence (P62615 whole entry): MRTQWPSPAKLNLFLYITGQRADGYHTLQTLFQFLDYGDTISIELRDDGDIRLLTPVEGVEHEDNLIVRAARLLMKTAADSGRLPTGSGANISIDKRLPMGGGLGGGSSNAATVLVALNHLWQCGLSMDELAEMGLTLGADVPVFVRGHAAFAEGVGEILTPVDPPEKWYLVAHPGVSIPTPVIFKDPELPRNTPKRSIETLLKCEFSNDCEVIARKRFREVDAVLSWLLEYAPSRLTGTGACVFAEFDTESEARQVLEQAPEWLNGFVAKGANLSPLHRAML
Excerpt: as §2, §3, §4, §5, §6, §7, §8
Low resolution mass analytics and purity controls were carried out using an Ultimate 3000-ISQ liquid-chromatography mass spectrometry (LCMS) system (Thermo Fisher […]

[1] = Decomposition study of stock solutions (HRMS, NMR); type: physicochemical; details: 10 mM DMSO stock at RT, after one day
Protocol: Firstly, we performed a temperature‐dependent decomposition study of compound 1 at 10 mM concentration in DMSO at room temperature (RT), +4 °C and −20 °C (SI, Section 2.3). After seven days, 64 % of the sample stored at RT had decomposed (SI, Table S1). Besides visual inspection of the colour changes of the test sample (see Table 2), the decomposition was monitored by HRMS and NMR spectroscopy. […] Furthermore, all three samples were tested for their inhibitory activity against PfIspE after the incubation period. […] This fact correlated with the degree of chemical transformation of compound 1 (Table S1). In the IspE assay, the activity of the target enzyme is coupled to the oxidation of NADH (which can be followed spectrophotometrically at 340 nm) via a cascade of the auxiliary enzymes pyruvate kinase and lactate dehydrogenase (PK/LDH).[10] Therefore, we next confirmed, whether the effects observed in the IspE assay are due to inhibition of the target enzyme or of the auxiliary enzymes. Three samples of compound 1 were tested in PK/LDH assay (Table 2).
Secondly, we analysed if spontaneous chemical transformation of compound 1 may depend on the solvent used for the preparation of its stock solutions. We incubated 10 mM stock preparations of compound 1 in DMSO, acetonitrile (ACN) and methanol (MeOH) at RT. Aliquots were taken during 16 days of incubation and tested against the enzyme PfIspE (Table 3). […] For further decomposition incubation of compound 1, only DMSO was used as solvent.
2.3 Temperature-Dependent Study
Compound 1 was dissolved in DMSO to afford 10 mM stock solution, in the scale of 3.65 mg in 1 mL. Three aliquots were prepared and one each was stored inside a light -protecting box at different temperatures: room temperature (RT), +4 °C and –20 °C. Samples were only taken to RT for the minimum time required for sampling. Samples were further d iluted with acetonitrile to 10 µM (1:1000) for HRMS analysis. For calibration, a fresh stock solution of the compound 1 was prepared shortly before the analysis. The concentration range used for the calibration was from 10 µM to 20 nM, including 10 samples with 1:1 dilutions starting from the highest concentration (Appendix I). In all of the calibration points and samples, diphenhydramine ( m/z: 256.16907 [M+H]+) was included as an internal standard at the concentration of 500 nM. The results were analysed using Thermo Xcalibur Quan Browser. Similarly, three NMR samples of compound 1 were prepared in DMSO-d6 and each stored at different temperatures; RT, +4 °C and –20 °C, (Figure S8).
Table S1. Summary of the decomposition of compound 1 at different temperatures with the corresponding enzymatic activities measured after three months.
The Percentage of Compound 1 Left After Degradation after 3 months of decomposition[b] Temperature Day 7 1 month 2 months PfIspE IC50 EcIspE IC50 PK/LDH IC50 […]
[a] [b] Errors given as formal standard error. n.d.: not determined, PK/LDH: pyruvate kinase and lactate dehydrogenase, Pf: Plasmodium falciparum, Ec: Escherichia coli.
Figure S7. The HRMS recorded for the samples submitted to the enzyme assay after 3 months of decomposition with the corresponding colour differences. […]
2.4 Solvent-Dependent Study
As in the Section 2.3, stock solutions of compound 1 were prepared in DMSO, ACN and MeOH and stored at RT for 16 days in a box protected from light . Samples were collected during this time and the enzymatic activity was analysed for them as in main text, Table […]
compound 1 for ACN or MeOH was detectible (Figures S11–12). Similarly, the old samples of compound 1 used for enzyme and cell assays were analysed with HRMS (Figure S13). Additionally, NMR sample in MeOH was prepared and measured over time while stored at RT. As a follow-up experiment, the stability of compound 1 was determined for its 10 mM stock solution in Tris-HCl (pH 7.6) with and without 5% DMSO and Cyrene™ with HRMS (Figure S16–18). […]

[2] = tested on: Plasmodium falciparum drug-sensitive NF54; experiment: Antimalarial assay, [3H]hypoxanthine incorporation; type: cell-based; details: Plasmodium falciparum
Protocol: as §5
For the final purified compounds, replicates were measured and standard deviation was calculated at least from two replicates.
1.2 General Procedure for Antimalarial Assay
Plasmodium falciparum drug-sensitive NF54 (airport strain from The Netherlands, provided by F. Hoffmann-La Roche Ltd) was cultivated in a variation of the medium consisting of RPMI 1640 supplemented with 0.5% ALBUMAX® II, 25 mM Hepes, 25 mM NaHCO3 (pH 7.3), 0.36 mM hypoxanthine, and 100 μg/mL neomycin, as previously described.[4,5] Human erythrocytes served as host cells.
Cultures were maintained in an atmosphere of 3% O2, 4% CO2, and 93% N2 in humidified modular chambers at 37 °C. Compounds were dissolved in MeOH (10 mM), diluted in hypoxanthine-free culture medium and titrated in duplicates over a 64-fold range in 96 well plates. Infected erythrocytes (1.25% final hematocrit and 0.3% final parasitemia) were added into the wells. After 48 h incubation, 0.25 μCi of [3H]hypoxanthine was added per well and plates were incubated for an additional 24 h. Parasites were harvested onto glass-fiber filters and radioactivity was counted using a Betaplate liquid scintillation counter (Wallac, Zurich). Chloroquine […]
The results were recorded and expressed as a percentage of the untreated controls. Fifty percent inhibitory concentrations (IC50) were estimated by linear interpolation.[6] […]

[3] = biological target: PK/LDH (pyruvate kinase and lactate dehydrogenase); experiment: PK/LDH auxiliary enzyme assay; type: biochemical; details: SFC-separated compound, dissolved in methanol shortly before the assay
Protocol: as §1, §3, §4, §5, §6, §7, §8
Low resolution mass analytics and purity controls were carried out using an Ultimate 3000-ISQ liquid-chromatography mass spectrometry (LCMS) system (Thermo Fisher Scientific, Dreieich, Germany) consisting of a Dionex UltiMate pump, an autosampler, DAD detector and an ESI quadrupole mass spectrometer. NMR spectra were recorded on a Bruker AV 500 or Ascend 700 (1H, 500 MHz or 700 MHz; 13C, 126 MHz or 175 MHz; 19F, 470 MHz) spectrometer. All spectra were measured in DMSO -d6, methanol-d4, acetone-d6 or acetonitrile-d3 to which reported

[4] = fractions of second purification (DMSO, RT, five days), dissolved in ACN
[5] = fractions of second purification (DMSO, RT, five days), dissolved in MeOH

Chain of PfIspE (Q8I470 entry or part of it): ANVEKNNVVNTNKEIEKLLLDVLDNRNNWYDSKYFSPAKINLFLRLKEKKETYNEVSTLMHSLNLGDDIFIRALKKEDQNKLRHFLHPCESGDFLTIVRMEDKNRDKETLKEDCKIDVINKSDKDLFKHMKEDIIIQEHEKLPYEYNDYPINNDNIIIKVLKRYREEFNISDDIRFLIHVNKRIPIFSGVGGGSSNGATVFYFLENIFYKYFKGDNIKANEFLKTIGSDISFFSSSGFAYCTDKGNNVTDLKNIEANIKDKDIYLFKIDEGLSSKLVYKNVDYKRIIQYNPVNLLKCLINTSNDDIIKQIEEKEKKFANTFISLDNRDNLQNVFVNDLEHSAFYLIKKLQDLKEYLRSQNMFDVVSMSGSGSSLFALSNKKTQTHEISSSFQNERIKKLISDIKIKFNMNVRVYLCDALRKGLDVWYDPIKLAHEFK

| SMILES | IC50 (PfIspE; [4]) | IC50 (PfIspE; [5]) | IC50 (EcIspE; dissolved in ACN) | IC50 (EcIspE; dissolved in MeOH) | decomposition in DMSO at RT: dimerisation (HRMS, in words) [1] | other results |
| --- | --- | --- | --- | --- | --- | --- |
| Cc1cc(-c2csc(Nc3ccccc3C(F)(F)F)n2)c(C)n1CC1CCCO1 (centres unmarked) [Compound 4, 4-(2,5-Dimethyl-1-((tetrahydrofuran-2-yl)methyl)-1H-pyrrol-3-yl)-N-(2-(trifluoromethyl)phenyl)thiazol-2-amine] | > 1190 µM | 112 µM | > 1.19 mM | 0.292 mM | no dimerisation | IC50 (PfIspE; fractions of first prep. HPLC purification (DMSO, RT, 2.5 weeks), dissolved in DMSO as 1 mg/mL): > 1190 µM |
| C[C@H]1[C@H](OC(=O)CCC(=O)O)O[C@@H]2O[C@@]3(C)CC[C@H]4[C@H](C)CC[C@@H]1[C@@]24OO3 [artesunate, reference compound] | – | – | – | – | – | IC50 ([2]; NF54, controls of the antimalarial assay, read-out: PfNF54 IC50): 4 ± 1.7 ng/mL |
| CCN(CC)CCCC(C)Nc1ccnc2cc(Cl)ccc12 (centres unmarked) [Chloroquine, reference compound] | – | – | – | – | – | IC50 ([2]; NF54, read-out: PfNF54 IC50): 3.1 ± 0.8 ng/mL |
| CCn1c(C)cc(-c2csc(N(c3ccccc3C(F)(F)F)N(C3=NC(=C4C=C(C)[N+](CC)=C4C)CS3)c3ccccc3C(F)(F)F)n2)c1C [DP2] | – | – | – | – | – | IC50 (PfIspE; SFC-separated compound, dissolved in methanol shortly before the assay): 59 ± 4 µM; IC50 [3]: 37 ± 4 µM; IC50 ([2]; NF54, 72 h, SFC-separated compound, dissolved in methanol shortly before the assay, 72 hours, highest concentration tested 20 μM, read-out: PfNF54 IC50): 2100 ± 200 nM |
| C=CCn1c(C)cc(-c2csc(Nc3ccccc3C(C)C)n2)c1C [Compound 3, 4-(1-Allyl-2,5-dimethyl-1H-pyrrol-3-yl)-N-(2-isopropylphenyl)thiazol-2-amine] | > 1420 µM | > 1420 µM | > 1.42 mM | > 1.42 mM | dimerising mainly into the predicted N−N dimers | – |
| CCn1c(C)cc(-c2csc(Nc3ccccc3OC)n2)c1C [Compound 2, 4-(1-Ethyl-2,5-dimethyl-1H-pyrrol-3-yl)-N-(2-methoxyphenyl)thiazol-2-amine] | > 1530 µM | > 1530 µM | > 1.53 mM | > 1.53 mM | dimerising mainly into the predicted N−N dimers | IC50 (PfIspE; first screening, from a single measurement, not reproducible later): 191 µM; IC50 (PfIspE; fresh batch, freshly prepared stock solution): > 500 µM |
